Data: patent US20030229004A1, “Modulation of tumor cells using BER inhibitors in combination with a sensitizing agent and DSBR inhibitors” (Pangene Corporation, priority 2002, published 2003)
Read-outs that look alike come from different tables or passages of the source.

Columns and labels:
A2780/cp70 cells = assay: Clonogenic survival in A2780/cp70 (MMR-deficient) ovary carcinoma cells; format: cell-based, human
Experimental: (§1) FIG. 1. Effect of Methoxyamine (MX) on cytotoxicity induced by IUDR in human A2780/cp70 (MMR-deficient) and […]) ovary carcinoma cell lines. Cells were treated for 48 hours with IUDR alone or with IUDR and 6 mM Methoxyamine. Surviving colonies were counted in triplicate 7-10 days after treatment. Error bars, Standard Error. FIG. 5. Effect of Methoxyamine (MX) on cytotoxicity induced by FaraA in human A2780/cp70 (MMR-deficient) and […]) ovary carcinoma cell lines. Cells were treated for 48 hours with FaraA alone or with FaraA and 6 mM Methoxyamine. Surviving colonies were counted in triplicate 7-10 days after treatment. Error bars, Standard Error. For clonogenic survival studies in A2780/cp70 and […], exponentially growing cells were similarly diluted and plated in complete RPMI 1640 medium (+400 μg/ml Hygromycin in […]). […] IUDR-containing medium was then removed in cell populations, cultures were washed with PBS and incubated at 37° C. for 7-10 days in tissue culture medium containing 10% defined FBS (+dThd). Cell populations were treated simultaneously with IUDR and 6 mM Methoxyamine (MX) (Sigma, St Louis, Mo.) for 48 hours; plates were then washed with PBS and surviving colonies were counted after incubation at 37° C. in drug-free medium for 7-10 days.

HCT116 cells [1] = assay: Clonogenic survival in HCT116 (MMR-deficient) colon carcinoma cells; format: cell-based, human
Experimental: (§2) FIG. 2. […] Cells were treated for 48 hours with IUDR alone (closed symbols) or with IUDR and 6 mM Methoxyamine (open symbols). Surviving colonies were counted in triplicate 7-10 days after treatment. Error bars, Standard Error. FIG. 4. […] Cells were treated for 24 hours with FaraA alone or with FaraA and 6 mM Methoxyamine. Surviving colonies were counted in triplicate 7-10 days after treatment. Error bars, Standard Error. The human colon cancer cell line HCT116 lacks MLH1 expression and their MMR positive subline (HCT116/chr 3-6) has hMLH1 reintroduced by chromosome 3 transfer. For clonogenic survival studies in HCT116 and HCT116/3-6 cells, exponentially growing cells were similarly diluted and plated in complete D-MEM medium (+400 μg/ml G418 in HCT116/3-6 cells). […] IUDR-containing medium was then removed in HCT116 cell populations, cultures were washed with PBS and incubated at 37° C. for 7-10 days in tissue culture medium containing 10% defined FBS (+dThd). HCT116 cell populations were treated simultaneously with IUDR and 6 mM Methoxyamine (MX) (Sigma, St Louis, Mo.) for 48 hours; plates were then washed with PBS and surviving colonies were counted after incubation at 37° C. in drug-free medium for 7-10 days.

HCT116/3-6 cells = assay: Clonogenic survival in HCT116/3-6 (MMR-proficient) colon carcinoma cells; format: cell-based, human; settings: for IC50: Homo sapiens, HCT-116, 24 hours
Experimental: as §2

EM9 cells = assay: FaraA cytotoxicity in XRCC1 mutant EM9 CHO cells; format: cell-based
Experimental: (§3) FIG. 3. Effect of Methoxyamine (MX) on cytotoxicity induced by FaraA in CHO cells proficient or deficient in Xrcc1 protein. Cells were treated for 24 hours with FaraA alone or with FaraA and 6 mM Methoxyamine. Surviving colonies were counted in triplicate 7-10 days after treatment and the experiment was repeated three times. Error bars, Standard Error.
(§4) AA8 and EM9 cells were obtained from the American Tissue Culture Collection (Manassas, Va.). H9T3 cells were a gift of Dr. L. H. Thompson (Lawrence Livermore National Laboratory, Livermore, Calif.). The parental CHO line clone AA8 was isolated as being heterozygous at the aprt locus; the mutant EM9 clone was isolated from AA8 cells following mutagenesis with EMS and carry a frameshift mutation in the XRCC1 gene resulting in a truncated polypeptide lacking two thirds of the normal sequence. […] H9T3-7-1 cells (referred in the text as H9T3) were derived from EM9 following transfection with a cosmid containing XRCC1 cDNA which corrects the DNA repair defect of EM9.
(§5) We tested whether MX, a small molecule known to be BER inhibitor, could sensitize CHO cells to FaraA cytotoxicity.

[2] = Plasma levels of IPDR in athymic mice; format: in vivo; settings: 250 mg/kg ip; samples 0-350 min; athymic mice with U87 MG tumors
Experimental: Athymic mice are treated with MX-IPDR or IPDR. Tumor fragment of about 2×2×2 mm derived from Human U87 MG Glioma Cells are implanted s.c. into the axilliary region of the mice. The mice are then treated ip with MX-IPDR at 250 mg/kg or IPDR at 250 mg/kg and samples taken at 0, 2, 5, 15, 45, 75, 120, 150, 210 and 350 min after treatment. The IPDR plasma levels are determined as previously reported by Kinsella et al. {Kinsella, 2000 #121}.

[3] = daily p.o. dosing of IPDR for 6 or 14 days; nude mice; cited from earlier work
[4] = system: human colon and brain cancer xenograft models; settings: daily p.o. dosing of IPDR for 6 or 14 days; human colon and brain cancer xenografts; cited from earlier work
A2780/cp70+chr3 cells = assay: Clonogenic survival in A2780/cp70+chr3 (MMR-proficient) ovary carcinoma cells; format: cell-based, human
Experimental: as §1

HCT116 cells [5] = assay: Clonogenic survival of HCT116 with poly IUDR and IUDR (Example 8); format: cell-based, human; settings: 1, 3, 10 μM for 48 hours
Experimental: Human colon cells (HCT 116) are treated with poly IUDR, an oligonucleotide comprised of IUDR, and IUDR. For clonogenic survival studies in HCT116, exponentially growing cells are similarly diluted and plated in complete D-MEM medium (+400 μg/ml G418 in HCT116/3-6 cells). Poly IUDR and IUDR treatment (1, 3, 10 μM) in HCT116 is for 48 hours in D-MEM (-G418) medium containing 10% dialyzed FBS, and the drug-containing medium is replaced after the initial 24 hours. Compound-containing medium is then removed from the HCT116 cell cultures, the cultures are washed with PBS, and incubated at 37° C. for 7-10 days in tissue culture medium containing 10% defined FBS (+dThd). Surviving colonies are counted after incubation at 37° C. in drug-free medium for 7-10 days.

AA8 cells = assay: FaraA cytotoxicity in wild type AA8 CHO cells; format: cell-based; settings: 6 mM MX
Experimental: as §3, §4, §5

H9T3 cells = assay: FaraA cytotoxicity in XRCC1 reconstituted H9T3 CHO cells; format: cell-based; settings: 6 mM MX
Experimental: as §3, §4, §5

[6] = system: Human MDA-MB-231 breast cancer cells; assay: MDA-MB-231 breast cancer xenografts in athymic mice, with Doxorubicin; format: in vivo; settings: MDA-MB-231 xenograft; i.p. days 1-5, 3 cycles; all mice also Doxorubicin 1.5 mg/kg day 4; measured at day 49
Experimental: FIG. 6. Effect of Rad51 antisense on tumor growth delay induced by Doxorubicin on Human MDA-MB-231 Breast cancer cells grown as xenografts in Athymic Mice. The mice were treated i.p. with Rad51 antisense at 5 mg/kg on days 1 through 5, MX at 2 mg/kg on days 1 through 5, and with Doxorubicin at 1.5 mg/kg on day 4. The cycle was repeated three times with a two-day rest period between cycles.
(§6) Athymic mice are treated with Rad51 antisense alone, MX alone, and Rad51 antisense in combination with MX. All mice are also treated with Doxorubicin. Tumor fragment of about 2×2×2 mm derived from Human MDA-MB-231 breast cancer cells Athymic mice are implanted s.c. into the axilliary region of the mice. The mice are treated i.p. with Rad51 antisense at 5 mg/kg on days 1 through 5, MX at 2 mg/kg on days 1 through 5, and Doxorubicin at 1.5 mg/kg on day 4. The cycle is repeated three times with a two-day rest period between cycles. The animals are euthanatized 49 days after the beginning of the experiment, and the tumor size is measured by calipers.

[7] = system: Human U87 MG glioma cells; assay: U87 MG glioma xenografts in athymic mice, with IPDR; format: in vivo; settings: U87 MG xenograft; i.p. days 1-5, 3 cycles; all mice also IPDR 250 mg/kg day 4; measured at day 49
Experimental: as §6, with “IPDR.” for “Doxorubicin.”, “U87 MG glioma” for “MDA-MB-231 breast cancer”, “cells” for “cells Athymic mice”, “IPDR” for “Doxorubicin”, “250” for “1.5”

[8] = system: wild type and Polβ-complemented mouse fibroblasts; settings: cited from earlier work
[9] = IUDR 48 hours, colonies counted after 7-10 days, read-out: IC50 for IUDR alone

## Nc1nc(F)nc2c1ncn2[C@@H]1O[C@H](CO)[C@@H](O)[C@@H]1O [FaraA, Fludarabine]
A2780/cp70 cells; Homo sapiens, FaraA + 6 mM MX, 48 hours, read-out: IC50 for FaraA with 6 mM MX
  IC50: 4 µM
A2780/cp70 cells; Homo sapiens, FaraA alone, 48 hours, read-out: IC50 for FaraA alone
  IC50: 11 µM
HCT116 cells [1]; Homo sapiens, HCT-116, FaraA + 6 mM MX, 24 hours, read-out: IC50 for FaraA with 6 mM MX
  IC50: 3 µM
HCT116 cells [1]; Homo sapiens, HCT-116, FaraA alone, 24 hours, read-out: IC50 for FaraA treatment
  IC50: 9 µM
HCT116/3-6 cells; HCT116/3-6 cells, FaraA + 6 mM MX, read-out: IC50 for FaraA in the presence of 6 mM MX
  IC50: 3 µM
HCT116/3-6 cells; HCT116/3-6 cells, FaraA alone, read-out: IC50 for FaraA
  IC50: 5 µM
EM9 cells; Cricetulus griseus, CHO, XRCC1 mutant EM9 cells, FaraA alone, 24 hours
  IC50: 7.5 µM

## O=c1ncc(I)cn1[C@H]1C[C@H](O)[C@@H](CO)O1 [IPDR, 5-iodo-2-pyrimidinone-2′-deoxyribose]
[2]
  Plasma IPDR levels required to act as a radiosensitizer: acceptable level
[3]
  Systemic toxicity: no significant systemic toxicity
[4]
  Tumor radiosensitization: significant radiosensitization

## O=c1[nH]c(=O)n([C@H]2C[C@H](O)[C@@H](CO)O2)cc1I [IUDR, IodoUridineDeoxyRibose]
A2780/cp70 cells; [9]
  IC50: 8 µM
A2780/cp70 cells; IUDR + 6 mM MX for 48 hours, read-out: IC50 for IUDR with MX treatment
  IC50: 1 µM
A2780/cp70+chr3 cells; MMR positive subline A2780/cp70 chr3
  Response to IUDR alone and to MX+IUDR compared with A2780/cp70: qualitatively similar
HCT116 cells [1]; [9]
  IC50: 4.5 µM
HCT116 cells [1]; IUDR + MX for 48 hours (method 6 mM MX, result sentence 12 mM MX), read-out: IC50 for IUDR with MX treatment
  IC50: 0.5 µM
HCT116/3-6 cells; MMR positive subline HCT116/chr3-6
  Response to IUDR alone and to MX+IUDR compared with HCT116: qualitatively similar
HCT116 cells [5]
  Cytotoxicity in clonogenic survival: greatly sensitized

## CON [MX, Methoxyamine]
A2780/cp70 cells; 6 mM MX, 48 hours
  Sensitization to IUDR-induced cytotoxicity by MX: greatly sensitized
A2780/cp70+chr3 cells; cp70/ch3 cells, 6 mM MX, 48 hours
  Sensitization to IUDR-induced cytotoxicity by MX: greatly sensitized
HCT116 cells [1]; 12 mM MX as printed
  Sensitization to IUDR-induced cytotoxicity by MX: greatly sensitized
HCT116/3-6 cells; HCT116/3-6 cells, 12 mM MX as printed
  Sensitization to IUDR-induced cytotoxicity by MX: greatly sensitized
EM9 cells; EM9 cells, 6 mM MX
  Sensitization to FaraA by MX: further sensitized
AA8 cells
  Sensitization to FaraA by MX: significantly sensitized
H9T3 cells
  Sensitization to FaraA by MX: significantly sensitized
[6]
  Tumor size and tumor cell killing: Reduction in tumor size and tumor cell killing
[7]
  Tumor size and tumor cell killing: Reduction in tumor size and tumor cell killing
[8]
  Sensitization to the cytotoxicity of Ganciclovir: sensitized
